Measured values reported in patent publication US20200010482A1, “INHIBITORS OF BETA SECRETASE” (Janssen Pharmaceutica NV, priority 2017, published 2020).

Columns and labels:
[1] = test system: Abeta total produced and secreted by SKNBE2 cells expressing hAPP695; assay: Cellular αLisa assay in SKNBE2 cells, Abeta total; type: cell-based, human; conditions: SKNBE2 cells expressing hAPP695, 18 hours incubation
Procedure: In two αLisa assays the levels of Abeta total and Abeta 1-42 produced and secreted into the medium of human neuroblastoma SKNBE2 cells are quantified. The assay is based on the human neuroblastoma SKNBE2 expressing the wild type Amyloid Precursor Protein (hAPP695). The compounds are diluted and added to these cells, incubated for 18 hours and then measurements of Abeta 1-42 and Abeta total are taken. Abeta total and Abeta 1-42 are measured by sandwich αLisa. αLisa is a sandwich assay using biotinylated antibody AbN/25 attached to streptavidin coated beads and antibody Ab4G8 or cAb42/26 conjugated acceptor beads for the detection of Abeta total and Abeta 1-42 respectively. In the presence of Abeta total or Abeta 1-42, the beads come into close proximity. The excitation of the donor beads provokes the release of singlet oxygen molecules that trigger a cascade of energy transfer in the acceptor beads, resulting in light emission. Light emission is measured after 1 hour incubation (excitation at […] and emission at 615 nm).
A best-fit curve is fitted by a minimum sum of squares method to the plot of % Controlmin versus compound concentration. From this an IC50 value (inhibitory concentration causing 50% inhibition of activity) can be obtained. • LC=Median of the low control values=Low control: cells preincubated without compound, without biotinylated Ab in the αLisa • HC=Median of the High control values=High Control: cells preincubated without compound
% Effect=100−[(sample−LC)/(HC−LC)*100]
% Control=(sample/HC)*100
% Controlmin=(sample−LC)/(HC−LC)*100

[2] = target: β-secretase I (BACE1) (Homo sapiens, UniProt P56817); assay: Biochemical assay, automated (CyclOps), BACE1; conditions: automated CyclOps bioassay; for IC50: read-out: AUTOMATED ASSAY BACE1 pIC50 (converted)
Procedure: (§1) Unless otherwise indicated all biochemicals were purchased from Sigma-Aldrich Chemical Company, Poole, Dorset, U.K. and non-aqueous solvents, of analytical or higher grade, were purchased from ThermoFisher Scientific, Loughborough, U.K. MilliQ water (Elix 5 & MilliQ Gradient; Merck Millipore) was used as the base aqueous solvent to make up the biological buffers. Base assay buffer was prepared by adding a 50 mM solution of citric acid (1.00244; Merck Biosciences) to stirring solution of 50 mM trisodium citrate (1.06448; Merck Biosciences) until a final pH of 5.0 was achieved. […] All assays were routinely carried out in 384-well assay plates (Costar 4514; Corning Life Sciences) and incubated at 37±1° C. for 60 min. prior to reading the endpoint fluorescence intensity. The (7-methoxyl coumarin-4-yl)acetic acid based substrate β-secretase substrate VI (M2465; Bachem) was prepared as a 1 mM stock in 100% DMSO (D/4121/PB08; ThermoFisher). Assay buffer was prepared by adding DMSO to base buffer to a final concentration of 1% (vol./vol.). β-secretase I (18.64 μM; “BACE1”) and β-secretase II (4.65 μM; “BACE2”) were obtained from Janssen Pharmaceutica, Beerse, Belgium and were stored as frozen aliquots (˜20 μl) and thawed as required.
(§2) Typically 12.5 μl of assay buffer was dispensed to rows B to P of the assay plate. To row A was added 18.75 μl of test compound diluted appropriately in assay buffer. A 6.25 μl aliquot of sample was transferred from row A to row B and the sample mixed three times by pipette. The process was repeated down the plate and 6.25 μl of solution discarded at row N post-mix. Rows O and P were designated as the positive and negative controls. To row P was added 6.25 μl base buffer. To rows A to O was added 6.25 μl enzyme (freshly prepared 40 nM BACE1 or 40 nM BACE2) diluted in base buffer. To initiate the assay 6.25 μl of freshly prepared 80 μM substrate, made up by diluting the 1 mM in 100% DMSO solution into HPLC grade water (Optima W6-212; ThermoFisher), was added to all the wells. The assay plate was covered and incubated at 37±1° C. for 60 min. The fluorescence intensity of the wells was read at 360/405 nm (excitation/emission) utilising a nine reads per well protocol (50 ms integration; density of 3, 0.25 mm spacing; SpectraMAX Paradigm plate reader; TUNE cartridge; SoftMax Pro v 6.3 software; Molecular Devices UK Ltd., Wokingham, Berkshire, UK) and outputting the median value of the nine reads as a text file. Data analysis was carried out using Prism software v 6.3 (GraphPad Inc., San Diego, Calif., USA) using the non-linear regression analysis models supplied by the vendor. For IC50 determinations the four parameter logistic variable slope model was used to fit the raw fluorescence intensity data with the ‘bottom’ fixed to the negative control.
(§3) The CyclOps bioassay module consisted of a fraction collection station, a reagent station, liquid handling robotics, plate store and an integrated plate reader (SpectraMAX Paradigm, TUNE cartridge, SoftMax Pro v 6.3; Molecular Devices). The fraction collection station composed of a 384 well collection plate (P-384-240SQ-C; Axygen, Union City, Calif., USA) mounted on a H-portal carriage (Festo AG & Co. KG, Esslingen, Germany), a syringe drive and a two-way six port injection valve fitted with a 200 μl loop (VICI AG International, Schenkon Switzerland). The output of the injection valve was addressable to all the positions of a 384 well collection plate. The reagent station consisted of hydraulically cooled (10-12° C.) aluminium segments; each manufactured to house a SBS microtiter plate footprint. Independent addressable reagent stations were housed within these sections. Where required, custom aluminium housings were used to accommodate standard laboratory plastic ware (e.g. Eppendorf tubes, Falcon tubes, etc.). As and when required the reagent reservoirs were covered and the lids contained holes through which the Teflon-coated probe could access solutions. […]

[3] = target: T1, β-secretase II (BACE2) (Homo sapiens, UniProt Q9Y5Z0); assay: Biochemical assay, automated (CyclOps), BACE2; conditions: automated CyclOps bioassay; for IC50: read-out: AUTOMATED ASSAY BACE2 pIC50 (converted)
T1 sequence (Q9Y5Z0 63-518): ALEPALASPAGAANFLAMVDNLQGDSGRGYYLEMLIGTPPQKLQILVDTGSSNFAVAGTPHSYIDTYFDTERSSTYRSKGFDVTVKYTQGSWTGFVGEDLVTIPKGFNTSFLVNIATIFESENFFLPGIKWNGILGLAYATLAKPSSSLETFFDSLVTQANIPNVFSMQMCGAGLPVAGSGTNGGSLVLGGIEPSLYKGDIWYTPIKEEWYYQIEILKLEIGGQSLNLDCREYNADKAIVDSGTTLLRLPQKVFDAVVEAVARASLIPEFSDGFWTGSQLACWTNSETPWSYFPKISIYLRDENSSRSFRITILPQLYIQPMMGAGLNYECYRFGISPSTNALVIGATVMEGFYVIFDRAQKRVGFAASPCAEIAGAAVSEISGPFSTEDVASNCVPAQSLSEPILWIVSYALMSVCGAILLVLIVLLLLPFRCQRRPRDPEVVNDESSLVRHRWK
Procedure: as §1, §2, §3

β-secretase I (BACE1), sequence (P56817 46-501): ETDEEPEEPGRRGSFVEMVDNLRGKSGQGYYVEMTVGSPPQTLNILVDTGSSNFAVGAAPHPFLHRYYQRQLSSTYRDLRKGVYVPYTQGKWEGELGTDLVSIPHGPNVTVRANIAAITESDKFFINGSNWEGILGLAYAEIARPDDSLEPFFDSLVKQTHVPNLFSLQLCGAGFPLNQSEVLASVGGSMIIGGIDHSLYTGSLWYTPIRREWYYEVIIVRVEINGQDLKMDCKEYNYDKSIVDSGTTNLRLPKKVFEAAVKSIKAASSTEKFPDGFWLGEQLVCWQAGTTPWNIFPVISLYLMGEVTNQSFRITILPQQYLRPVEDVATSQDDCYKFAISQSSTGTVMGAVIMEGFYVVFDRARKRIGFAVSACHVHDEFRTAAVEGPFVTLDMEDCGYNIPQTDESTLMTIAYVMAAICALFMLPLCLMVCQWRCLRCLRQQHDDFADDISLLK

| SMILES | AUTOMATED ASSAY BACE1 pIC50 [2] | AUTOMATED ASSAY BACE2 pIC50 [3] | IC50 [2] [nM] | IC50 [3] [nM] | further results |
| --- | --- | --- | --- | --- | --- |
| COC/C=C/c1cnc(OC)c2c1C[C@H]1CSC(N)=N[C@@]1(c1ccc(F)cc1F)C2 [Compound 47] | – | – | 9.77 | 5.89 | – |
| COc1cc(C)c(-c2cnc(OC)c3c2C[C@H]2CSC(N)=N[C@@]2(c2ccc(F)cc2F)C3)cn1 [Compound 106] | – | – | 4.68 | 75.9 | – |
| COc1ncc(C#N)c2c1C[C@]1(c3ccccc3F)N=C(N)SC[C@@H]1C2 (racemic) [Compound 22] | – | – | – | – | IC50 ([1]; Homo sapiens, SKNBE2, 18 h, read-out: CELLULAR αLISA ASSAY IN SKNBE2 CELLS ABETA TOTAL pIC50 (converted)): 49 nM |

Continued, in another order:

| AUTOMATED ASSAY BACE1 pIC50 [2] | AUTOMATED ASSAY BACE2 pIC50 [3] | IC50 [2] [nM] | IC50 [3] [nM] | SMILES | further results |
| --- | --- | --- | --- | --- | --- |
| 8.6 | 9.02 | – | – | COc1ncc(-c2ccccc2)c2c1C[C@]1(c3ccc(F)cc3F)N=C(N)SC[C@@H]1C2 [Compound 49] | CELLULAR αLISA ASSAY IN SKNBE2 CELLS ABETA TOTAL pIC50 [1]: 8.75 |
| 7.65 | 6.73 | – | – | COc1ncc(-c2cc(Cl)ccc2C)c2c1C[C@]1(c3ccc(F)cc3F)N=C(N)SC[C@@H]1C2 [Compound 60] | – |
| 7.77 | 7.3 | – | – | COc1ncc(-c2ccccc2C)c2c1C[C@]1(c3ccc(F)cc3F)N=C(N)SC[C@@H]1C2 [Compound 55] | – |
